Test results as given in patent publication US7173049B2, “Fungicidal compositions” (Bayer Cropscience S.A., priority 2001, dated 2007).

System: Plasmopara viticola
Experiment: Test against downy mildew of grapevine (preventive action)
Format: in vivo, Plasmopara viticola on grapevine plants (Chardonnay variety)
Details: alone
Excerpt: In the compositions according to the invention, the compound (I)/compound (II) ratio is advantageously chosen so as to produce a synergistic effect. The term “synergistic effect” especially means the effect defined by S. R. Colby in an article entitled “Calcul des responses synergiques et antagonistes des combinaisons herbicides [Calculation of the synergistic and antagonist responses of herbicidal combinations]”, Weeds, (1967), 15, pages 20–22.
[formula] in which E represents the expected percentage of inhibition of the disease for the combination of the two fungicides at defined doses (for example equal to x and y, respectively), X is the percentage of inhibition observed for the disease by compound (I) at a defined dose (equal to x), Y is the percentage of inhibition observed for the disease by compound (II) at a defined dose (equal to y). When the percentage of inhibition observed for the combination is greater than E, there is a synergistic effect.
Test of a composition against downy mildew of grapevine (Plasmopara viticola; preventive action):
Grapevine plants (Chardonnay variety) are grown on sandy soil in plastic pots, with one plant per pot. The two-month-old plants (6 to 7 leaves developed) are sprayed with compound (I) and compound (II), either alone or as a mixture.
The fungicidal active materials, either alone or as a mixture, are applied at a rate of 500 liters/ha.
The compound (I)/compound (II) ratios studied are 1/10, 1/15 and 1/20.
Three days after the treatment, each plant is inoculated by spraying with an aqueous suspension of Plasmopara viticola spores obtained from contaminated leaves. The spore concentration is about 100 000 units per ml.
After contamination, the plants are incubated for two days at 18° C. under a saturated atmosphere, and then for 5 days at about 20° C. with a relative humidity of 90–100%.
Seven days after the contamination, the symptoms are evaluated in terms of extent of surface area on the underside of the leaves that are infected, relative to the untreated but contaminated plants.
The efficacy of the treatment is calculated using the Abbott formula below: […]
The concentrations of the fungicides alone or as a mixture giving 50%, 70% or 90% efficacy for each component, in the appropriate test, are determined on the basis of the model of the dose/response sigmoid curve and their corresponding confidence intervals. The results are analysed using the Tammes or Colby model.

| Structure (SMILES) | % Efficacy (100 mg/l) | % Efficacy (150 mg/l) | % Efficacy (200 mg/l) | % Efficacy (1000 mg/l) | % Efficacy (1500 mg/l) | % Efficacy (2000 mg/l) | % Efficacy (70 mg/l) | % Efficacy (105 mg/l) | % Efficacy (140 mg/l) | % Efficacy (700 mg/l) | % Efficacy (1050 mg/l) | % Efficacy (1400 mg/l) | % Efficacy (10 mg/l, preventive, 7 days after contamination) |
| --- | --- | --- | --- | --- | --- | --- | --- | --- | --- | --- | --- | --- | --- |
| CCO[PH](=O)O.[Al] [Compound (IIb), aluminium ethyl hydrogen phosphonate, reference compound] | 0% | 0% | 0% | 46% | 60% | 81% | – | – | – | – | – | – | – |
| OP(O)O [Compound (IIa), phosphorous acid] | – | – | – | – | – | – | 0% | 0% | 0% | 4% | 50% | 52% | – |
| O=C(NCc1ncc(C(F)(F)F)cc1Cl)c1c(Cl)cccc1Cl [Compound (Ia), 2,6-dichloro-N-{[3-chloro-5-(tri-fluoromethyl)-2-pyridinyl]methyl}benzamide] | 100% | – | – | – | – | – | – | – | – | – | – | – | 77% |
